Where two headings read alike, the source gives them in different places.
Columns and labels:
[1] = biological target: SERT; details: read-out: reported equilibrium dissociation constant (KD) for SERT; cited from earlier work
[2] = test system: SERT; details: ref 75 (El-Kasaby A, et al.); cited from earlier work
[3] = biological target: DAT (Homo sapiens, UniProt Q01959); details: close analog of nefazodone; no reference given; cited from earlier work
[4] = test system: DAT; experiment: Reported inhibition of DAT; assay type: biochemical; details: relative to tesofensine
[5] = test system: SERT; details: cited from earlier work
[6] = biological target: DAT WT (Homo sapiens, UniProt Q01959); experiment: [3H]Dopamine transport assay, wild-type DAT; assay type: cell-based
Chain of DAT WT (Q01959 57-620 limits assumed): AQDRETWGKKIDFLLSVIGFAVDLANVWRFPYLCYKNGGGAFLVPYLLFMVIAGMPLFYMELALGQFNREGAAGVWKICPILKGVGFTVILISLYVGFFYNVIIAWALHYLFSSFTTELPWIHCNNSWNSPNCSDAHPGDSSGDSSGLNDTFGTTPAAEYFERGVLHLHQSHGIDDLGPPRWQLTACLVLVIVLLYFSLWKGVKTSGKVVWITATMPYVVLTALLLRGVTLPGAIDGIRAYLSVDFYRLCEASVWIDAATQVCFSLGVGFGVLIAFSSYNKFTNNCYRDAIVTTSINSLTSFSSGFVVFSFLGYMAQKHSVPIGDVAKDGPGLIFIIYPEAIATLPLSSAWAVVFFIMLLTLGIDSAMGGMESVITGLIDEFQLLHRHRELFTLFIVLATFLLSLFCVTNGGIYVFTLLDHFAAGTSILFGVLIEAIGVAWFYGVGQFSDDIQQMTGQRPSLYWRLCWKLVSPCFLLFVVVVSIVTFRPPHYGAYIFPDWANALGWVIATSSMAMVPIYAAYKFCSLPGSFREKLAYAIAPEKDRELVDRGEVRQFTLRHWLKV

[7] = test system: NET; details: cited from earlier work
[8] = biological target: DAT V152A (Homo sapiens, UniProt Q01959, V152A); experiment: [3H]Dopamine transport assay, DAT V152A mutant; assay type: cell-based
Chain of DAT V152A (Q01959 57-620 V152A limits assumed): as the sequence (Q01959 57-620 limits assumed) above, with V96A counted along it

[9] = biological target: DAT F326A (Homo sapiens, UniProt Q01959, F326A); experiment: [3H]Dopamine transport assay, DAT F326A mutant; assay type: cell-based; details: for IC50: IC50 of [3H]dopamine uptake, F326A mutant of DAT, HEK-293F cells, n = 3
Chain of DAT F326A (Q01959 57-620 F326A limits assumed): as the sequence (Q01959 57-620 limits assumed) above, with F270A counted along it

[10] = test system: DAT; details: cited from earlier work
[11] = biological target: DAT S422A (Homo sapiens, UniProt Q01959, S422A); experiment: [3H]Dopamine transport assay, DAT S422A mutant; assay type: cell-based
Chain of DAT S422A (Q01959 57-620 S422A limits assumed): as the sequence (Q01959 57-620 limits assumed) above, with S366A counted along it

Chain of DAT (Homo sapiens, UniProt Q01959) (Q01959 whole entry): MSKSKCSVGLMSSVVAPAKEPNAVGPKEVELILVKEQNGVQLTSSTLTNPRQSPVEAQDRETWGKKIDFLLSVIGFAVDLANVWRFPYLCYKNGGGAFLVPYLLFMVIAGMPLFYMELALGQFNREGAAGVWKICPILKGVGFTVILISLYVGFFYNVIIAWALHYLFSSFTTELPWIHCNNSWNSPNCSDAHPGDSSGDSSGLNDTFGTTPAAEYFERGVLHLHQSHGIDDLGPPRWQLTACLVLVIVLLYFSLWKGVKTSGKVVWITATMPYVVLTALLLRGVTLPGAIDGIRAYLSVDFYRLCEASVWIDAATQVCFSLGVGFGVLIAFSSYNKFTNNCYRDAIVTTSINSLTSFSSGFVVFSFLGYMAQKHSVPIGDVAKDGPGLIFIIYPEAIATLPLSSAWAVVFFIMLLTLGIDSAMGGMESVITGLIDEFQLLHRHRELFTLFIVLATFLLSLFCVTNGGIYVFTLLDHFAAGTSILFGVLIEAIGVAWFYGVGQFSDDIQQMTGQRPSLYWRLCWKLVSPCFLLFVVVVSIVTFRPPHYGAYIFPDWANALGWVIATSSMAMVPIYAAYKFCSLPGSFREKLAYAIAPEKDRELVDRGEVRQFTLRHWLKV

In the case of `CCc1nn(CCCN2CCN(c3cccc(Cl)c3)CC2)c(=O)n1CCOc1ccccc1` [nefazodone], the Kd [1] is listed as 200 nM and the “mode of inhibition of SERT” value [2] is listed as “non-competitive”.

For `O=c1n(CCCN2CCN(c3cccc(Cl)c3)CC2)nc2ccccn12` [trazodone], the “affinity for DAT compared with nefazodone” value [3] is listed as “markedly reduced”.

For `COC(=O)[C@H]1[C@@H](OC(=O)c2ccccc2)C[C@@H]2CC[C@H]1N2C` [cocaine], the “fold lower affinity for DAT than tesofensine” value [4] was 50 fold.

In the case of `c1ccc2cc([C@]34CNC[C@H]3C4)ccc2c1` [centanafadine], the IC50 ([5]; read-out: IC50 of serotonin reuptake) is given as 83 nM, the IC50 [6] is given as 116 nM and the IC50 ([7]; read-out: IC50 of norepinephrine reuptake) is given as 6 nM. For the same compound, the IC50 [8] was 246 nM, the “change of IC50 versus DAT WT” value ([8]; V152A mutant versus WT) was “nearly doubling” and the IC50 [9] was 2090 nM. For the same compound, the IC50 ([10]; read-out: IC50 of dopamine reuptake) was 38 nM.

For `N[C@@H]1CC[C@@H](c2ccc(Cl)c(Cl)c2)c2ccccc21` [dasotraline], the IC50 [11] is given as 4700 nM, the “fold increase of IC50 versus DAT WT” value ([11]; S422A mutant versus WT) is given as 1900 fold and the IC50 ([5]; read-out: reported IC50 on SERT) is given as 15 nM. For the same compound, the IC50 [6] was 2.43 nM, the IC50 ([7]; read-out: reported IC50 on NET) was 4 nM and the “fold increase of IC50 (decrease of inhibitory potency) versus DAT WT” value ([9]; F326A mutant versus WT) was “approximately 1500 fold”. For the same compound, the IC50 [9] was 3740 nM and the IC50 ([10]; read-out: reported IC50 on DAT) was 3 nM.

— paper PMC12769732 (Nature Communications, 2025)
